# Experiments:
# Type in all cases: in vivo
# [1] = system: male C57BL/6J mice fed C or WD; experiment: Intervention study: MLN4924 initiated after 8 weeks of WD feeding
# Protocol: MLN4924 (60 mg/kg, SQ) was given every other day for the last 8 weeks of the 16-week feeding. For both cohorts, body weight was measured weekly. Results are mean ±SEM. n=5-7. “*”, vs C+Veh; “#”, vs. WD+Veh, p<0.05. ns= Not significant.
# Male C57BL/6J mice were fed chow or WD for 16 weeks. Vehicle or MLN4924 treatment (60 mg/kg, SQ, once every two days) was initiated after 8 weeks of WD feeding. Analyses were performed after 16 weeks of feeding. Results are mean ± SEM. n=5-8. “*”, vs C+Veh; “#”, vs. WD+Veh, p<0.05. Normalized densitometry was shown in low panel bar graphs.
# Male C57BL/6J mice were purchased from the Jackson Laboratory (Bar Harbor, ME). Mice were fed a regular chow (C) diet or a Western diet (WD) that contains 42% fat calories and 0.2% cholesterol content (TD. 88137, Envigo Inc. Indianapolis, IN).
# MLN4924 and TAS4464 were purchased from MedChemExpress (MCE, Monmouth Junction, NJ). For cell treatment, MLN4924 and TAS4464 were dissolved in DMSO. Cells were serum starved overnight and then treated with MLN4924, TAS4464 and/or insulin as indicated. For injection in mice, MLN4924 and TAS4464 were first dissolved in DMSO, which was further suspended in 10% (2-hydroxypropyl)-β-cyclodextrin (Sigma, St. Louis, MO). The final solution contains 1% DMSO. The subcutaneous injection volume is 200 µl/mouse.
# Lipids were extracted in a mixture of chloroform: methanol (2:1; v: v), dried under nitrogen, and resuspended in isopropanol containing 1% triton X-100. Total cholesterol, free cholesterol and TG were measured with assay kits following the manufacturer’s instruction. Total cholesterol assay kit and TG assay kit were purchased from Pointe Scientific (Canton, MI).
# Aspartate aminotransferase (AST) and alanine aminotransferase (ALT) assay kits were purchased from Pointe Scientific (Canton, MI). Free fatty acid assay kit was purchased from Biovision Inc. (Milpitas, CA). Insulin ELISA kit was purchased from Crystal Chem Inc. (Elk Grove Village, IL).
# Next investigated was the glucose lowering effect of CRL inhibition in mice rendered obese and insulin resistant by 16-weeks of WD feeding. […] Next conducted was an intervention study in which MLN4924 treatment was initiated after mice were fed WD for 8 weeks that rendered mice obese and insulin resistant. […] In summary, robust evidence is provided herein that pharmacological CRL inhibition is an effective approach to lowering hyperglycemia.
# [2] = system: male C57BL/6J mice fed Chow or Western diet; experiment: MLN4924 intervention for 9 weeks in 16-week WD-fed mice (Experimental II)
# Protocol: Chronic MLN4924 treatment attenuates hepatic steatosis in Western diet-fed mice. Male C57BL/6J mice were fed Chow (C) or Western diet (WD) for 16 weeks. MLN4924 treatment (60 mg/kg, SQ, every other day) was initiated after mice were fed WD for 7 weeks as indicated. Control mice were injected with vehicle. After 16 weeks of feeding, mice were fasted from 9 am to 3 pm and euthanized. Scale bar = 125 µm. […]
# WT male C57BL/6J mice were purchased from the Jackson Lab (Bar Harbor, ME). Western diet (TD. 88137, Envigo Inc. Indianapolis, IN) contains 42% fat calories and 0.2% cholesterol. Mice were housed in micro-isolator cages with corn cob bedding under 7 am - 7 pm light cycle and 7 pm -7 am dark cycle. MLN4924 was prepared in 10% 2-hydroxypropyl-b-cyclodextrin to a final concentration of 3 mg/ml. All mice were fasted for 6 h from 9 am to 3 pm before euthanasia. All animals received humane care according to the criteria outlined in the “Guide for the Care and Use of Laboratory Animals.” All animal protocols were approved by the Institutional Animal Care and Use Committee at the University of Kansas Medical Center and the University of Oklahoma Health Sciences Center. […]
# Human normal livers (less than 5% steatosis) and histologically confirmed NASH livers were obtained from either the University of Kansas Liver Center or the Liver Tissue Cell Distribution System (LTCDS) at the University of Minnesota. Human and mouse tissue samples were homogenized in 1XRIPA buffer containing 1% SDS and protease inhibitors. After incubation on ice for 1 hour, the samples were centrifugation and supernatant was transferred to a new tube. The protein lysate was mixed with equal volume of 2X laemmli buffer and incubated at 95° C. for 5 minutes and used for SDS-PAGE and immunoblotting. ImageJ software (NIH) was used to determine band intensity.
# Total liver RNA was purified with Trizol (Sigma-Aldrich, St. Louis, MO). Total liver RNA was used in reverse transcription with Oligo dT primer and SuperScript III reverse transcriptase (Thermo Fisher Scientific, Grand Island, NY). Real-time PCR was performed on a Bio-Rad CFX384 Real-time PCR system with iQ SYBR Green Supermix (Bio-rad, Hercules, CA). The comparative CT (Ct) method was used to calculate the relative mRNA expression. The relative mRNA expression was expressed as 2 ^-ΔΔCt with the control group arbitrarily set as “1”. […]
# obese mice = experiment: Hyperinsulinemic-euglycemic clamp study
# Protocol: A hyperinsulinemic-euglycemic clamp study was conducted in which obese mice were treated with vehicle or MLN4924.
# [3] = WD 16 weeks, 60 mg/kg SQ every other day for last 8 weeks
# [4] = chronic MLN4924, 60 mg/kg SQ once every 2 days
structure (smiles),measurement,setting,value
"NS(=O)(=O)OC[C@@H]1C[C@@H](n2ccc3c(N[C@H]4CCc5ccccc54)ncnc32)C[C@@H]1O [MLN4924, ((1S,2S,4R)-4-(4-((1S)-2,3-dihydro-1H-inden-1-ylamino)-7H-pyrrolo[2,3-d]pyrimidin-7-yl)-2-hydroxycyclopentyl) methyl sulfamate]",blood glucose (6 h fast),[1]; [3],normalized blood glucose
same,hepatic steatosis as measured by liver TGs,[1]; [3],lowered hepatic steatosis
same,serum AST,[1]; [3],decreased serum AST
same,liver IRS protein abundance,"[1]; WD 16 weeks, 60 mg/kg SQ once every two days after 8 weeks",increases liver IRS protein abundance
same,hepatic AKT phosphorylation,[1]; chronic WD-fed mice,increased hepatic AKT phosphorylation
same,ALT,[2]; WD-fed mice,significantly reduced ALT
same,hepatic fat accumulation,[2]; WD-fed mice,significant reduction of hepatic fat accumulation
same,plasma insulin levels,[2]; WD-fed mice,not reduced
same,blood glucose,"[2]; WD-fed mice, intervention for 9 weeks",completely normalized blood glucose
same,liver histology,[2]; chow-fed MLN4924-treated mice,appeared normal
same,plasma insulin,[2]; chow-fed mice,did not affect plasma insulin
same,alanine aminotransferase (ALT) elevation,"[2]; chow-fed mice, 9 weeks",did not cause alanine aminotransferase (ALT) elevation
same,hypoglycemia,"[2]; chow-fed mice, intervention for 9 weeks",without causing undesirable hypoglycemia
same,hepatic glucose 6-phosphatase (G6Pase) gene,[2]; chronic MLN4924,decreased hepatic gluconeogenic gene glucose 6-phosphatase (G6Pase)
same,liver pyruvate kinase (L-PK) gene,[2]; chronic MLN4924,downregulation of liver pyruvate kinase (L-PK)
same,hepatic IRS protein,[2]; [4],increased IRS protein
same,hepatic cullin neddylation,[2]; [4],decreased hepatic cullin neddylation
same,hepatic downstream AKT activation,[2]; [4],increased IRS protein and downstream AKT activation
same,tolerability / hepatotoxicity,"[2]; chronic MLN4924, 9 weeks",well tolerated and did not cause hepatotoxicity
same,glucose infusion rate,obese mice,~ 30 mg/kg/min
same,plasma insulin level during the clamp procedure,obese mice,~ 3.75 ng/ml

# Reference: patent publication US20230218654A1, “COMPOSITIONS AND METHODS FOR TREATING HYPERGLYCEMIA IN TYPE-2 DIABETES” (The Board of Regents of the university of Oklahoma, priority 2020, published 2023)
